{"source": "paper PMC8016166", "about": "“Identification of a Potent and Selective 5-HT1A Receptor Agonist with In Vitro and In Vivo Antinociceptive Activity” (ACS Chemical Neuroscience, 2020)", "key": {"5-HT1AR [1]": {"target": "T1, 5-HT1AR (Rattus norvegicus, UniProt P19327)", "T1 construct": "from tissue; hippocampus per the main-text methods", "T1 sequence (P19327 1-422)": "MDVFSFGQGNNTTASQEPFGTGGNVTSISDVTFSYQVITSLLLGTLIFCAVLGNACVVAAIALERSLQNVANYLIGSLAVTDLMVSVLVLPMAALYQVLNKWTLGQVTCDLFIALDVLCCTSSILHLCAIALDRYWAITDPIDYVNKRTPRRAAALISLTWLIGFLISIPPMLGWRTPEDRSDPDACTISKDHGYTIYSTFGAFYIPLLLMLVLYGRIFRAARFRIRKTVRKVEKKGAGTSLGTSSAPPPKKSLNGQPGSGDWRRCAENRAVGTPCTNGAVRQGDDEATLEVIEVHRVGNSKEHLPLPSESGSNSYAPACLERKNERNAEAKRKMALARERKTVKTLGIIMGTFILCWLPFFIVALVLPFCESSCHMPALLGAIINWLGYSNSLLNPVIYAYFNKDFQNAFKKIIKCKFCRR", "experiment": "[35S]GTPγS functional 5-HT1A assay in rat hippocampal membranes", "assay_type": "biochemical", "details": "read-out: 5-HT1A Emax (%) ± SEM", "method": "(§1) Male Sprague–Dawley rats were decapitated and their brains removed and placed on ice. The hippocampi (for the functional 5-HT1A receptor assay) or frontal cortexes (for the competitive 5-HT2A and 5-HT2C receptor assays) were dissected and homogenized with a glass homogenizer in 30 vol. ice-cold TED buffer (50 mMTris-HCl, 1 mM EDTA, 1 mM dithiotheritol, pH 7.4). Next, the homogenate was centrifuged at 21 000g for 30 min at 4 °C. The pellet was suspended in 30 vol TED buffer (pH 7.4) and incubated in a water bath for 10 min at 37 °C to remove endogenous ligands. The suspension was centrifuged again at 21 000g for 30 min at 4 °C. The pellet was resuspended in 30 vol TED buffer (pH 7.4) and the centrifugation step was repeated. The final pellet was suspended in 10 vol 50 mM Tris-HCl (pH 7.4) and stored at −80 °C until use.[47]\n(§2) The [^35S]GTPγS assay was performed according to the method described previously.[49] […] Nonspecific binding was determined with 100 μM of unlabeled GTPγS. The reaction mixture was incubated for 90 min at 36 °C in a volume of 250 μL. […] Next, 96-well Unifilter Plates (PerkinElmer, USA) were presoaked for 1 h with 50 mM Tris-HCl (pH = 7.4) before harvesting. The reaction was terminated by vacuum filtration onto filter plates with the Filter Mate Harvester (PerkinElmer, USA). The samples were then rapidly washed with 2 mL of 50 mM Tris-HCl (pH = 7.4) buffer. The filter plates were dried for 2 h at 50 °C. After drying, 45 μL of EcoScint-20 scintillant (PerkinElmer, USA) was added to every well. The radioactivity was counted in a Trilux MicroBeta^2 counter (PerkinElmer, USA). The data were analyzed with GraphPad Prism 5.0 software (GraphPad Software, San Diego California USA, www.graphpad.com). To determine whether compound-stimulated [^35S]GTPγS binding involved 5-HT1A receptors, two protocols were used.\nThe curves were fitted with a one-site nonlinear regression model. Efficacy (Emax) and potency (pEC50) were calculated from […] from three separate experiments and expressed as the means ± SEM. […] The differences in compound potency and efficacy were evaluated with one-way ANOVA followed by the Bonferroni’s post-hoc test. The baseline G-protein stimulation was set at 100%. One, two, or three symbols represent statistical significance of 0.05, 0.01, and 0.001, respectively."}, "[2]": {"tested_on": "superficial dorsal horn neurons (lamina I–II)", "experiment": "Patch-clamp recording from spinal cord slices", "assay_type": "cell-based, mouse", "method": "The Italian Ministry of Health approved all the experiments that were conducted on postnatal CD1 mice (P18–P25) in accordance with the Guide for the Care and Use of Laboratory Animals and the EU and Italian regulations on animal welfare. The spinal cord slices were obtained following the procedure described previously.[69],[70] Briefly, the animals were anesthetized with isoflurane and decapitated, the spinal cord and vertebrae were rapidly removed and placed in ice-cold dissecting Krebs’ solution (composition in mM:125 NaCl, 2.5 KCl, 1.25 NaH2PO4, 26 NaHCO3, 25 glucose, 6 MgCl2, 1.5 CaCl2, and 1 kynurenic acid, pH 7.4, 320 mOsm), bubbled with 95% O2, 5% CO2. The lumbar spinal cord was isolated, embedded in an agarose block (low melting point agarose 3%, Thermo Fisher Scientific, Waltham, USA), and transverse slices (500 μm thick) were obtained using a vibrating microtome (WPI, Sarasota, USA). The slices were incubated in oxygenated incubation Krebs’ solution (the same as dissecting but without kynurenic acid) at 35 °C for 30 min and used for recording. The Patch-clamp recording in whole-cell configuration was performed on lamina I–II neurons at room temperature. The slices were perfused at 2 mL/min with recording Krebs’solution (in mM: 125 NaCl, 2.5 KCl, 1.25 NaH2PO4, 26 NaHCO3, 25 glucose, 1 MgCl2, and 2 CaCl2, pH 7.4, 320 mOsm). Recordings of post-synaptic currents (EPSCs) were performed in voltage clamp, by using an intracellular solution with the following composition (in mM): 120 potassium methanesulfonate, 10 NaCl, 10 EGTA, 1 CaCl2, 10 HEPES, 5 ATP-Mg, pH adjusted to 7.2 with KOH, osmolarity 300 mOsm. 8-OH-DPAT was obtained from Sigma-Aldrich (Saint Louis, USA). The data were recorded and acquired using a Multiclamp 700A amplifier and the pClamp 10 software (Molecular Devices, Sunnyvale, USA). The sampling rate was 10 kHz, and the data were filtered at 2 kHz. The data were analyzed off-line using pClamp10 software and Minianalysis (Synaptosoft, USA). The data are expressed as the mean ± SEM and differences were considered significant for p < 0.05. The statistical significance for the effect on EPSC frequency was determined using the Kolmogorov–Smirnov test on individual neurons."}, "5-HT1AR [3]": {"target": "T1, 5-HT1AR", "experiment": "Effect of WAY100635 on compound-stimulated [35S]GTPγS binding (Tables SI-1, SI-2)", "assay_type": "biochemical", "method": "as §2, with “used. […]” for “used.”\nWAY).) Results were expressed as means ± SEM. Curves were fitted with a one-site sigmoidal dose-response equation […]\ncalculated as the ratio of pEC50 in the presence of WAY100635 divided by the pEC50 of agonist alone. Basal 5-HT1AR activation was set to 100%. Results were analyzed with one-way ANOVA followed by the Bonferroni’s post-hoc test. […]\nWAY100635 (10^-10 M - 10^-5 M, WAY). Results were expressed as means ± SEM. Curves were fitted with a one-site sigmoidal dose-response equation and Emax (%) of the EC80 agonist concentration alone and in the presence of WAY100635 were determined from 2 independent experiments. Basal (no ligand added) [35S]GTPγS binding was set to 100%. Results were analyzed with one-way ANOVA followed by the Bonferroni’s post-hoc test."}, "Male Swiss CB1 mice": {"tested_on": "Male Swiss CB1 mice", "experiment": "Formalin test", "assay_type": "in vivo, mouse", "method": "Male Swiss CB1 mice (Envigo, S. Pietro al Natisone (UD)) weighing 25–30 g were used. The animals were kept at a constant room temperature (25 ± 1 °C) under a 12:12 h light and dark cycle, with free access to food and water. Each mouse was used for only one experiment. […] All the tests were performed blind to treatment.\nThe formalin (5%, 10 μL; Sigma-Aldrich) was injected subcutaneously into the plantar side of the right hind paw.[68] After injection, the mice were immediately placed in a plexiglas box: the total time (in seconds) spent on licking or biting the injected hind paw was recorded every 5 min at selected intervals, 0–10 (phase I) and 10–60 (phase II) min, in the different experimental groups, as an indicator of nociceptive behavior. […] A mean response was then calculated for each phase. […] A vehicle solution containing 10% DMSO was given as a control. Morphine was used as positive control. The test compound and vehicle were […] (i.p.) administered (5 mL/kg) 15 min before the formalin. […] The data are expressed as mean values (SEM). Analyses of variance (two-way repeated measures ANOVA followed by post hoc Bonferroni test) were performed to assess significance using the Instat 3.0 software (GraphPad Software, San Diego, CA). p < 0.05 was considered significant."}, "5-HT2CR": {"target": "T2, 5-HT2CR (Rattus norvegicus, UniProt P08909)", "T2 construct": "from tissue; host or cells: frontal cortex of male Sprague-Dawley rats", "T2 sequence (P08909 33-460)": "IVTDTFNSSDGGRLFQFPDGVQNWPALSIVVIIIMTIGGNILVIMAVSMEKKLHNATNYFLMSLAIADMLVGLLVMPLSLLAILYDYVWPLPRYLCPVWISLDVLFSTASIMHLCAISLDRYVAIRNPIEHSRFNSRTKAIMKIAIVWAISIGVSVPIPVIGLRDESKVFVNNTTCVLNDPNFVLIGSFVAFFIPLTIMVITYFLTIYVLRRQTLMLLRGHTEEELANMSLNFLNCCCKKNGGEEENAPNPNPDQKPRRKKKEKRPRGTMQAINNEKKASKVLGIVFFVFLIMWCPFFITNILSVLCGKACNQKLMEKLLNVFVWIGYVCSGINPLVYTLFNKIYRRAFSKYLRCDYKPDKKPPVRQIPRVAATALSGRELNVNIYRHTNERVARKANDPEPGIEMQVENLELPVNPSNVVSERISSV", "experiment": "Radioligand binding at 5-HT2C on rat frontal cortex membranes", "details": "rat frontal cortex membranes; [3H]mesulergine", "method": "as §1\nThe 5-HT2A assay was performed according to a previously described protocol with some modifications.[48] […] Nonspecific binding was determined in the presence of 10 μM mianserin. For the 5-HT2C assay, the frontal cortex homogenates (250 μg protein/mL) were incubated in triplicate with 1 nM [^3H]mesulergine for 60 min at 36 °C in a 50 mM Tris-HCl (pH 7.4) buffer containing 0.1% ascorbate, 10 mM MgCl2, 10 μM pargyline, 100 nM spiperone, and increasing concentrations (10^–10–10^–5 M) of the compound tested. After incubation, the reaction mixture was deposited onto UniFilter-96 GF/B plates, with the aid of a FilterMate-96 Harvester. The filter plates were presoaked with 0.4% PEI for 1 h. Next, each filter well was washed with 1.75 mL of 50 mM Tris-HCl (pH 7.4) and left to dry on a heating block set to 50 °C for 2 h. Then, 45 μL of Microscint-20 scintillation fluid was added to each filter well and left to equilibrate overnight. The filter-bound radioactivity was counted in a MicroBeta^2 Microplate Counter. Curves were fitted with a one-site sigmoidal dose–response equation and pKi for each compound was calculated with the Cheng-Pursoff equation. Results were analyzed with one-way ANOVA followed by the Bonferroni’s posthoc test. The results are expressed as means ± SEM of three independent experiments."}}, "data": [{"compound": "CCCN(CCC)C1CCc2cccc(O)c2C1", "note": "(stereo not drawn) [8-OH-DPAT, reference compound]", "values": [{"measurement": "Emax", "setting": "5-HT1AR [1]", "result": "152 ± 2.4", "unit": "%"}, {"measurement": "neurons showing sEPSC frequency decrease", "setting": "[2]; 10 μM", "result": "4 out of 11"}, {"measurement": "neurons showing slow outward current", "setting": "[2]; bath application 10 μM, voltage clamp −60 mV", "result": "6 out of the 11"}, {"measurement": "Emax", "setting": "5-HT1AR [3]; read-out: Emax (%) ± SEM of EC80 agonist concentration alone", "result": "142 ± 19.4", "unit": "%"}, {"measurement": "Emax", "setting": "5-HT1AR [3]; read-out: Emax (%) ± SEM, compound alone", "result": "152 ± 2.4", "unit": "%"}]}, {"compound": "CN1CC[C@]23c4c5ccc(O)c4O[C@H]2[C@@H](O)C=C[C@H]3[C@H]1C5", "note": "[Morphine, reference compound]", "values": [{"measurement": "analgesic effect in first and second phases of the formalin test", "setting": "Male Swiss CB1 mice; 10 mg/kg i.p., formalin 5% 10 μL intraplantar", "result": "essentially eliminated the response to formalin"}]}, {"compound": "COc1cc(OC)c(C(=O)CCCCN2CCC3(CC2)NC(=O)NC3=O)cc1NS(=O)(=O)c1ccc(C(F)(F)F)cc1", "note": "[RS-102221, reference compound]", "values": [{"measurement": "5-HT2C pKi ± SEM", "setting": "5-HT2CR", "result": "8.34 ± 0.12"}]}, {"compound": "COc1ccccc1N1CCN(CCN(C(=O)C2CCCCC2)c2ccccn2)CC1", "note": "[WAY-100635, reference compound]", "values": [{"measurement": "licking response after formalin, per se", "setting": "Male Swiss CB1 mice; 3 mg/kg i.p.", "result": "did not alter the licking response"}]}, {"compound": "NCCc1c[nH]c2ccc(O)cc12", "note": "[serotonin, reference compound]", "values": [{"measurement": "Emax", "setting": "5-HT1AR [1]; rat hippocampal membranes, basal 5-HT1AR activation set to 100%", "result": "192 ± 4.9", "unit": "%"}]}]}
